Reference: patent US20100305068A1, “COMPOUNDS AND METHODS FOR MODULATING PROTEIN TRAFFICKING” (priority 2006, published 2010)

system: pdr5 ypt1^ts cells; assay: microbe, parasite or virus in culture; assay type: cell-based, yeast; conditions: Table 3; 3.13 uM compound; 37° C.; background (0 uM) 0.077
From the text: The activity of the compounds as modulators of protein trafficking may be measured in the assays described herein that evaluate the ability of a compound to rescue an impairment in protein trafficking. For example, the yeast mutant cell line ypt1^ts can be used to identify compounds that rescue cells from the lethal phenotype of a mutant YPT1 allele (see, e.g., Examples and Schmitt et al. (1988) Cell 53:635-47). The activity may be measured, for example, in a whole yeast cell assay using 384-well screening protocol and an optical density measurement.
The yeast mutant cell line ypt1^ts suppresses, in a temperature dependent fashion, the dominant-lethal phenotype of a mutant YPT1 allele (Schmitt et al. (1988) Cell 53:635-47). ypt1^ts cells grow normally at temperatures up to 30° C., but are growth arrested at 37° C. (Id.).
A library of compounds (“The Spectrum Collection”) obtained from Microsource Discovery Systems, Inc. (Gaylordsville, Conn.) was screened to assess the ability of individual compounds to restore growth of ypt1^ts cells. Screening was carried out using ypt1^ts cells containing a mutation in the pdr5 gene (resulting in inactivation of a membrane efflux pump). The effect of the compounds was measured in pdr5 ypt1^ts cells cultured at 37° C.

Molecule	optical density, 3.13 uM
Cc1[nH]c2ccccc2c1CN(C)C [2-METHYL GRAMINE]	0.084
CC(C)c1ccc2c(c1)CCC1C(C)(C(N)=O)CCCC21C (stereo not drawn) [DEHYDRO- ABIETAMIDE]	0.272
COc1ccc(C(=O)c2ccccc2O)c(O)c1 [DIOXY- BENZONE, reference compound]	0.088
CC1(C)C(=O)C=C[C@]2(C)C3CC[C@@]4(C)[C@H](c5ccoc5)C[C@H]5O[C@]54C3[C@H](O)CC12 (stereo partly drawn) [TRI- CHILENONE]	0.119
Clc1ccc(Cl)cc1 [PARA- DICHLORO- BENZENE]	0.169
CC(CCC(=O)O)[C@H]1CCC2C3CC[C@H]4C[C@H](O)CC[C@]4(C)C3C[C@H](O)[C@@]21C (stereo partly drawn) [DEOXY- CHOLIC ACID, reference compound]	0.233
C#CCCCCCCCCCCCC(=O)CC(O)COC(C)=O (stereo not drawn) [AVO- CADYNONE ACETATE]	0.126
CC(=O)O[C@]1(C(C)=O)CC[C@H]2[C@@H]3C=C(C)C4=CC(=O)CC[C@]4(C)[C@H]3CC[C@@]21C [MEGESTROL ACETATE, reference compound]	0.222
CC(CCC(=O)O)[C@H]1CCC2C3C(CC[C@@]21C)[C@@]1(C)CC[C@@H](O)C[C@H]1C[C@H]3O (stereo partly drawn) [CHENODIOL, reference compound]	0.126
COC(=O)CCCOc1ccc(Cl)cc1Cl [2,4-DICHLORO- PHENOXY- BUTYRIC ACID, METHYL ESTER]	0.159
COc1ccc2c(c1)OCC(Cc1ccc(OC)c(OC(C)=O)c1)C2=O (stereo not drawn) [DEOXY- SAPPANONE B 7,3′-DI- METHYL ETHER ACETATE]	0.137
COc1c(C(C)C)oc2cc3oc(=O)ccc3cc12 [PEUCEDANIN]	0.138
CC1(C)C(=O)CC[C@@]2(C)C1C[C@@H](O)[C@@]1(C)C3=CC(=O)O[C@@H](c4ccoc4)[C@]3(C)CCC21 (stereo partly drawn) [DIHYDRO- 7- […]- OXYGEDUNIN]	0.197
COc1ccccc1-c1cc(=O)c2cccc(OC)c2o1 [8,2′- DIMETHOXY- FLAVONE]	0.083
AVOCATIN B	0.451

same assay, conditions: Table 3; 12.5 uM compound; 37° C.; background (0 uM) 0.077

Molecule	optical density, 12.5 uM
Cc1[nH]c2ccccc2c1CN(C)C [2-METHYL GRAMINE]	0.106
CC(C)c1ccc2c(c1)CCC1C(C)(C(N)=O)CCCC21C (stereo not drawn) [DEHYDRO- ABIETAMIDE]	0.419
COc1ccc(C(=O)c2ccccc2O)c(O)c1 [DIOXY- BENZONE, reference compound]	0.12
CC1(C)C(=O)C=C[C@]2(C)C3CC[C@@]4(C)[C@H](c5ccoc5)C[C@H]5O[C@]54C3[C@H](O)CC12 (stereo partly drawn) [TRI- CHILENONE]	0.283
Clc1ccc(Cl)cc1 [PARA- DICHLORO- BENZENE]	0.28
CC(CCC(=O)O)[C@H]1CCC2C3CC[C@H]4C[C@H](O)CC[C@]4(C)C3C[C@H](O)[C@@]21C (stereo partly drawn) [DEOXY- CHOLIC ACID, reference compound]	0.481
C#CCCCCCCCCCCCC(=O)CC(O)COC(C)=O (stereo not drawn) [AVO- CADYNONE ACETATE]	0.275
CC(=O)O[C@]1(C(C)=O)CC[C@H]2[C@@H]3C=C(C)C4=CC(=O)CC[C@]4(C)[C@H]3CC[C@@]21C [MEGESTROL ACETATE, reference compound]	0.341
CC(CCC(=O)O)[C@H]1CCC2C3C(CC[C@@]21C)[C@@]1(C)CC[C@@H](O)C[C@H]1C[C@H]3O (stereo partly drawn) [CHENODIOL, reference compound]	0.285
COC(=O)CCCOc1ccc(Cl)cc1Cl [2,4-DICHLORO- PHENOXY- BUTYRIC ACID, METHYL ESTER]	0.255
COc1ccc2c(c1)OCC(Cc1ccc(OC)c(OC(C)=O)c1)C2=O (stereo not drawn) [DEOXY- SAPPANONE B 7,3′-DI- METHYL ETHER ACETATE]	0.17
COc1c(C(C)C)oc2cc3oc(=O)ccc3cc12 [PEUCEDANIN]	0.25
CC1(C)C(=O)CC[C@@]2(C)C1C[C@@H](O)[C@@]1(C)C3=CC(=O)O[C@@H](c4ccoc4)[C@]3(C)CCC21 (stereo partly drawn) [DIHYDRO- 7- […]- OXYGEDUNIN]	0.568
COc1ccccc1-c1cc(=O)c2cccc(OC)c2o1 [8,2′- DIMETHOXY- FLAVONE]	0.234
AVOCATIN B	0.032

same assay, conditions: Table 3; 50 uM compound; 37° C.; background (0 uM) 0.077

Molecule	optical density, 50 uM
Cc1[nH]c2ccccc2c1CN(C)C [2-METHYL GRAMINE]	0.295
CC(C)c1ccc2c(c1)CCC1C(C)(C(N)=O)CCCC21C (stereo not drawn) [DEHYDRO- ABIETAMIDE]	0.041
COc1ccc(C(=O)c2ccccc2O)c(O)c1 [DIOXY- BENZONE, reference compound]	0.579
CC1(C)C(=O)C=C[C@]2(C)C3CC[C@@]4(C)[C@H](c5ccoc5)C[C@H]5O[C@]54C3[C@H](O)CC12 (stereo partly drawn) [TRI- CHILENONE]	0.462
Clc1ccc(Cl)cc1 [PARA- DICHLORO- BENZENE]	0.202
CC(CCC(=O)O)[C@H]1CCC2C3CC[C@H]4C[C@H](O)CC[C@]4(C)C3C[C@H](O)[C@@]21C (stereo partly drawn) [DEOXY- CHOLIC ACID, reference compound]	0.133
C#CCCCCCCCCCCCC(=O)CC(O)COC(C)=O (stereo not drawn) [AVO- CADYNONE ACETATE]	0.057
CC(=O)O[C@]1(C(C)=O)CC[C@H]2[C@@H]3C=C(C)C4=CC(=O)CC[C@]4(C)[C@H]3CC[C@@]21C [MEGESTROL ACETATE, reference compound]	0.202
CC(CCC(=O)O)[C@H]1CCC2C3C(CC[C@@]21C)[C@@]1(C)CC[C@@H](O)C[C@H]1C[C@H]3O (stereo partly drawn) [CHENODIOL, reference compound]	0.15
COC(=O)CCCOc1ccc(Cl)cc1Cl [2,4-DICHLORO- PHENOXY- BUTYRIC ACID, METHYL ESTER]	0.221
COc1ccc2c(c1)OCC(Cc1ccc(OC)c(OC(C)=O)c1)C2=O (stereo not drawn) [DEOXY- SAPPANONE B 7,3′-DI- METHYL ETHER ACETATE]	0.374
COc1c(C(C)C)oc2cc3oc(=O)ccc3cc12 [PEUCEDANIN]	0.461
CC1(C)C(=O)CC[C@@]2(C)C1C[C@@H](O)[C@@]1(C)C3=CC(=O)O[C@@H](c4ccoc4)[C@]3(C)CCC21 (stereo partly drawn) [DIHYDRO- 7- […]- OXYGEDUNIN]	0.328
COc1ccccc1-c1cc(=O)c2cccc(OC)c2o1 [8,2′- DIMETHOXY- FLAVONE]	0.674
AVOCATIN B	0.032
